The source made the active and inactive calls. The calls are words filed in the database; no cut-off is given here. Peptide text beside a SMILES is read from it.
Key:
[1] = test system: Oocyte; assay: (§1) Inhibition of rat alpha6/alpha3 E195A mutant beta4 nAChR expressed in Stage V-VI Xenopus laevis Oocytes assessed as inhibition of acetylcholine-induced current by measuring recovery time at 10 uM preincubated with compound for 5 mins followed by washout in presence of acetylcholine by electrophysiological recording; format: cell-based
[2] = target: Nicotinic acetylcholine receptor alpha1/beta1/epsilon/delta (Mus musculus) (UniProt P04756+P09690+P02716+P20782); assay: Inhibition of mouse alpha1/beta1deltaepsilon nAChR expressed in Stage V-VI Xenopus laevis Oocytes assessed as inhibition of acetylcholine-induced current at 10 uM in presence of acetylcholine by electrophysiological recording relative to control; format: cell-based; settings: Oocyte
[3] = Inhibition of rat alpha6/alpha3 E195A mutant beta4 nAChR expressed in Stage V-VI Xenopus laevis Oocytes assessed as inhibition of acetylcholine-induced current in presence of acetylcholine by electrophysiological recording; format: cell-based; settings: Oocyte
[4] = test system: Oocyte; assay: as §1, with “T59K” for “E195A”; format: cell-based
[5] = target: Neuronal acetylcholine receptor; alpha2/beta2 (Rattus norvegicus, UniProt P12389+P12390); assay: Inhibition of rat alpha2/beta2 nAChR expressed in Stage V-VI Xenopus laevis Oocytes assessed as inhibition of acetylcholine-induced current in presence of acetylcholine by electrophysiological recording; format: cell-based, Oocyte
Neuronal acetylcholine receptor; alpha2/beta2, sequence (P12389 whole entry): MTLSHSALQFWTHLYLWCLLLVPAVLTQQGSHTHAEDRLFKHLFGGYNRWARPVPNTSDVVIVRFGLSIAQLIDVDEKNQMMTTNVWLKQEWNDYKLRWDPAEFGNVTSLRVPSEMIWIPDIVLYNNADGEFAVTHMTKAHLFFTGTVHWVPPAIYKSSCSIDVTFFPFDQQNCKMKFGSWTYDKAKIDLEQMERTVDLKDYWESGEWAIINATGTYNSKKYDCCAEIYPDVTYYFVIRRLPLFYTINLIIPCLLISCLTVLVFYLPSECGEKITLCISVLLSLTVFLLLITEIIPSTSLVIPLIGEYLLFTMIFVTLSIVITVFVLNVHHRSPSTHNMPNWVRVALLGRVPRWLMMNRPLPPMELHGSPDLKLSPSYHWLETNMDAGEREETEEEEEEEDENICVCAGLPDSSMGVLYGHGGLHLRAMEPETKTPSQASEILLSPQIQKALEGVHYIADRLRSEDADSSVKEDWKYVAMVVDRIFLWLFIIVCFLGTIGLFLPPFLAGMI
Neuronal acetylcholine receptor; alpha2/beta2, sequence (P12390 whole entry): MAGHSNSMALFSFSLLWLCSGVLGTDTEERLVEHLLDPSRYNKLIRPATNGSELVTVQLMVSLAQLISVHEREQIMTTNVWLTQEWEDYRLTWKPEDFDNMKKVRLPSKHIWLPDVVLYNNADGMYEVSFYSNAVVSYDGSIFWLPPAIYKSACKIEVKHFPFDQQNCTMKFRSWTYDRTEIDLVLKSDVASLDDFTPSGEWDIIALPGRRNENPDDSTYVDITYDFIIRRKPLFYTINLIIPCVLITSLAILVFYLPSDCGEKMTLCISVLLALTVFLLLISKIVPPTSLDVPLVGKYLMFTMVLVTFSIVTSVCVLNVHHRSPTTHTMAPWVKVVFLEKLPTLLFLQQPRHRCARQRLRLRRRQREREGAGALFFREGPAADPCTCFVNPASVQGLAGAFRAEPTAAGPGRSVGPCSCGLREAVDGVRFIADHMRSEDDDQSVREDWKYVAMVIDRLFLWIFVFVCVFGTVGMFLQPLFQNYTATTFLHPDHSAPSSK

[6] = target: Neuronal acetylcholine receptor; alpha2/beta4 (Rattus norvegicus) (UniProt P12389+P12392); assay: Inhibition of rat alpha2/beta4 nAChR expressed in Stage V-VI Xenopus laevis Oocytes assessed as inhibition of acetylcholine-induced current at 10 uM in presence of acetylcholine by electrophysiological recording relative to control; format: cell-based; settings: Oocyte
[7] = test system: Oocyte; assay: as §1, with “D152A” for “E195A”; format: cell-based
[8] = target: Neuronal acetylcholine receptor; alpha3/beta2 (Rattus norvegicus) (UniProt P04757+P12390); assay: Inhibition of rat alpha3/beta2 nAChR expressed in Stage V-VI Xenopus laevis Oocytes assessed as inhibition of acetylcholine-induced current at 10 uM in presence of acetylcholine by electrophysiological recording relative to control; format: cell-based; settings: Oocyte
[9] = target: T1, Nicotinic acetylcholine receptor alpha6/alpha3/beta2/beta3 (Rattus norvegicus) (UniProt P04757+P12390+P12391+P43143); assay: Inhibition of rat alpha6/alpha3beta2beta3 nAChR expressed in Stage V-VI Xenopus laevis Oocytes assessed as inhibition of acetylcholine-induced current at 10 uM in presence of acetylcholine by electrophysiological recording relative to control; format: cell-based; settings: Oocyte
[10] = organism: Rattus norvegicus; assay: Selectivity index, ratio of IC50 for rat alpha6/alpha3beta4 K57T mutant nAChR expressed in Stage V-VI Xenopus laevis oocytes to IC50 for rat alpha6/alpha3beta4 nAChR expressed in Stage V-VI Xenopus laevis Oocytes by electrophysiological recording; format: cell-based
[11] = target: T2, Nicotinic acetylcholine receptor alpha6/alpha3/beta4 (Rattus norvegicus) (UniProt P04757+P12392+P43143); assay: as §1, with “alpha6/alpha3beta4” for “alpha6/alpha3 E195A mutant beta4”; format: cell-based; settings: Oocyte
[12] = target: T3, Neuronal acetylcholine receptor; alpha3/beta4 (Rattus norvegicus) (UniProt P04757+P12392); assay: Inhibition of rat alpha3/beta4 nAChR expressed in Stage V-VI Xenopus laevis Oocytes assessed as inhibition of acetylcholine-induced current at 10 uM in presence of acetylcholine by electrophysiological recording relative to control; format: cell-based; settings: Oocyte
[13] = target: T2, Nicotinic acetylcholine receptor alpha6/alpha3/beta4 (Rattus norvegicus); assay: Inhibition of rat alpha6/alpha3beta4 nAChR expressed in Stage V-VI Xenopus laevis Oocytes assessed as acetylcholine-induced current response at 100 nM in presence of 100 uM acetylcholine by electrophysiological recording relative to control; format: cell-based; settings: Oocyte
[14] = test system: Oocyte; assay: Inhibition of rat alpha6/alpha3 D152A mutant beta4 nAChR expressed in Stage V-VI Xenopus laevis Oocytes assessed as acetylcholine-induced current response at 1 uM in presence of 100 uM acetylcholine by electrophysiological recording relative to control; format: cell-based; set-up: scale not given: the % may be the effect or the level left
[15] = target: Neuronal acetylcholine receptor; alpha4/beta4 (Rattus norvegicus) (UniProt P09483+P12392); assay: Inhibition of rat alpha4/beta4 nAChR expressed in Stage V-VI Xenopus laevis Oocytes assessed as inhibition of acetylcholine-induced current at 10 uM in presence of acetylcholine by electrophysiological recording relative to control; format: cell-based; settings: Oocyte
[16] = target: Neuronal acetylcholine receptor; alpha4/beta2 (Rattus norvegicus, UniProt P09483+P12390); assay: Inhibition of rat alpha4/beta2 nAChR expressed in Stage V-VI Xenopus laevis Oocytes assessed as inhibition of acetylcholine-induced current in presence of acetylcholine by electrophysiological recording; format: cell-based, Oocyte
Neuronal acetylcholine receptor; alpha4/beta2, sequence (P09483 whole entry): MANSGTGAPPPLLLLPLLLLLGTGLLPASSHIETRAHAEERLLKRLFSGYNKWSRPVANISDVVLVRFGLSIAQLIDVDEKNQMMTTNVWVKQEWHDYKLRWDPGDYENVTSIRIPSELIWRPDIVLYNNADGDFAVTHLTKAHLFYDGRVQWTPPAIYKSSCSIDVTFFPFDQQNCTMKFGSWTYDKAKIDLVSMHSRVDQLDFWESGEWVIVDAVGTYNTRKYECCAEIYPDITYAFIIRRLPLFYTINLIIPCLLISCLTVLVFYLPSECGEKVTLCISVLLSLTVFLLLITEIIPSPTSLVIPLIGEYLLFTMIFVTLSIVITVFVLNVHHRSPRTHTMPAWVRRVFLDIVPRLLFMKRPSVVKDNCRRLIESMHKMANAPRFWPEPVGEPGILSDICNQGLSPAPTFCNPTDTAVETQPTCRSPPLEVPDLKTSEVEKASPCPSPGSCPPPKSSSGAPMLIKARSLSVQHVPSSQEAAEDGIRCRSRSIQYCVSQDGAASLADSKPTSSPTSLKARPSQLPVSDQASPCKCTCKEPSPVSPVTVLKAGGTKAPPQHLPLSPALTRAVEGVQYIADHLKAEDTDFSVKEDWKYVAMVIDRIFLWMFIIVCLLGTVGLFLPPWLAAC
Neuronal acetylcholine receptor; alpha4/beta2, sequence (P12390 whole entry): as the sequence (P12390 whole entry) above

[17] = test system: Oocyte; assay: Inhibition of rat alpha6/alpha3 D152A mutant beta4 nAChR expressed in Stage V-VI Xenopus laevis Oocytes assessed as acetylcholine-induced current response at 100 nM in presence of 100 uM acetylcholine by electrophysiological recording relative to control; format: cell-based; set-up: scale not given: the % may be the effect or the level left
[18] = target: Neuronal acetylcholine receptor subunit alpha-7 (Rattus norvegicus) (UniProt Q05941); assay: Inhibition of rat alpha7 nAChR expressed in Stage V-VI Xenopus laevis Oocytes assessed as inhibition of acetylcholine-induced current at 10 uM in presence of acetylcholine by electrophysiological recording relative to control; format: cell-based; settings: Oocyte
Neuronal acetylcholine receptor subunit alpha-7 (Rattus norvegicus), sequence (Q05941 whole entry): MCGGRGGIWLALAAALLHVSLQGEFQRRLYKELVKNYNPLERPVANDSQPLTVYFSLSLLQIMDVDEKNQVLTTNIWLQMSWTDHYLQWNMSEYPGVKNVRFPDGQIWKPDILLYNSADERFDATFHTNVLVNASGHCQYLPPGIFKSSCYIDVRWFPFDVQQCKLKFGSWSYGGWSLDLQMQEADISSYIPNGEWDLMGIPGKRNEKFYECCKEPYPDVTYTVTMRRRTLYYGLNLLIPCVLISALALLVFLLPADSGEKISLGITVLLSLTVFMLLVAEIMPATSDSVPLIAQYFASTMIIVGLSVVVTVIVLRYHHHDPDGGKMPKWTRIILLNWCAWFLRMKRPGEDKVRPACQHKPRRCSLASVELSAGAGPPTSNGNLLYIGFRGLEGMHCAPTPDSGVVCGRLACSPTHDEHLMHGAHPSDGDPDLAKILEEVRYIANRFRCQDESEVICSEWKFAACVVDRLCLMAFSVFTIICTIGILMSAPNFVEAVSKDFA

[19] = target: Neuronal acetylcholine receptor; alpha2/beta4 (Rattus norvegicus, UniProt P12389+P12392); assay: Inhibition of rat alpha2/beta4 nAChR expressed in Stage V-VI Xenopus laevis Oocytes assessed as inhibition of acetylcholine-induced current in presence of acetylcholine by electrophysiological recording; format: cell-based, Oocyte
Neuronal acetylcholine receptor; alpha2/beta4, sequence (P12389 whole entry): as the sequence (P12389 whole entry) above
Neuronal acetylcholine receptor; alpha2/beta4, sequence (P12392 whole entry): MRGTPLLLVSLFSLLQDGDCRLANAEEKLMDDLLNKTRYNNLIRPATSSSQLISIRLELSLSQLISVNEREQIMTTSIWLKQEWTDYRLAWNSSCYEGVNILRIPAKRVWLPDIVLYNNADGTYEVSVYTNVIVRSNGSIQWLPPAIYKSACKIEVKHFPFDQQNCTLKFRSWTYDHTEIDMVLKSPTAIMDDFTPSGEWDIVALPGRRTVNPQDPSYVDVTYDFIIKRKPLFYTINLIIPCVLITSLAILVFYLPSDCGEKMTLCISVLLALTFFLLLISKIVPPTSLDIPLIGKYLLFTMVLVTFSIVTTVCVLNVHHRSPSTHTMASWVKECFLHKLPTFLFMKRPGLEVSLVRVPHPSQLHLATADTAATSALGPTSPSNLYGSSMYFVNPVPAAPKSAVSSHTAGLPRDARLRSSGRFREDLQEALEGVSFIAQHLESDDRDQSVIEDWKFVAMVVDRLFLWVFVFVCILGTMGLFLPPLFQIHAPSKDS

[20] = target: T3, Neuronal acetylcholine receptor; alpha3/beta4 (Rattus norvegicus); assay: Inhibition of rat alpha3beta4 nAChR expressed in Stage V-VI Xenopus laevis Oocytes assessed as inhibition of acetylcholine-induced current at 10 uM in presence of acetylcholine by electrophysiological recording; format: cell-based; settings: Oocyte
[21] = target: T1, Nicotinic acetylcholine receptor alpha6/alpha3/beta2/beta3 (Rattus norvegicus); assay: Inhibition of rat alpha6/alpha3beta2beta3 nAChR expressed in Stage V-VI Xenopus laevis Oocytes assessed as inhibition of acetylcholine-induced current at 10 uM in presence of acetylcholine by electrophysiological recording; format: cell-based; settings: Oocyte
[22] = target: Nicotinic acetylcholine receptor alpha6/alpha3/beta4 (Rattus norvegicus, UniProt P04757+P12392+P43143); assay: Inhibition of rat alpha6/alpha3beta4 nAChR expressed in Stage V-VI Xenopus laevis Oocytes assessed as inhibition of acetylcholine-induced current in presence of acetylcholine by electrophysiological recording; format: cell-based, Oocyte
Nicotinic acetylcholine receptor alpha6/alpha3/beta4, sequence (P04757 whole entry): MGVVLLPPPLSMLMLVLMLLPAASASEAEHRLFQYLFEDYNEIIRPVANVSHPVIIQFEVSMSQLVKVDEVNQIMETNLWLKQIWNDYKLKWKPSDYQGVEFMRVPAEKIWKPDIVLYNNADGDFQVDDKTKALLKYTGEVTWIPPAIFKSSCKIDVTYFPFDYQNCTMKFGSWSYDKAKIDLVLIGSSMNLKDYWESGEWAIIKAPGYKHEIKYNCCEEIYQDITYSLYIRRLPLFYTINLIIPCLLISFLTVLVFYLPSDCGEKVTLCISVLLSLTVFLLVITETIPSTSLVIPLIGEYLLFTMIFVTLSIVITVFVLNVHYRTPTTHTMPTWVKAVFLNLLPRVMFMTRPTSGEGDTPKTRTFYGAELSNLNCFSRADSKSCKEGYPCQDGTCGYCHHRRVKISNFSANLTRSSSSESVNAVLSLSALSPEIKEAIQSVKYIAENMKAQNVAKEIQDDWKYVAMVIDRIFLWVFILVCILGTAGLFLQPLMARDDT
Nicotinic acetylcholine receptor alpha6/alpha3/beta4, sequence (P12392 whole entry): as the sequence (P12392 whole entry) above
Nicotinic acetylcholine receptor alpha6/alpha3/beta4, sequence (P43143 whole entry): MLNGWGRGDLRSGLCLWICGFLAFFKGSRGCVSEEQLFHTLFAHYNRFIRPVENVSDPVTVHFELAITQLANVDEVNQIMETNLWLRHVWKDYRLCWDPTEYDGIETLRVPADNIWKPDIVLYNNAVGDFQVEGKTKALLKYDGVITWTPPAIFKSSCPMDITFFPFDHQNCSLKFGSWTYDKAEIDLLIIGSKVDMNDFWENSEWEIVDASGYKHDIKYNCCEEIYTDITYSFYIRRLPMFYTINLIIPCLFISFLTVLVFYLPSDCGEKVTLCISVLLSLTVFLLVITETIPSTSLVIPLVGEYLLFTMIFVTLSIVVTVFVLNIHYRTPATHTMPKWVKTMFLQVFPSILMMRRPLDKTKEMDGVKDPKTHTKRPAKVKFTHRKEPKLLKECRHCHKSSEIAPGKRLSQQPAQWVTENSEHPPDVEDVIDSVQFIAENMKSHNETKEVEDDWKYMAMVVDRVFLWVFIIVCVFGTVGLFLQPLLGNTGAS

[23] = target: Neuronal acetylcholine receptor; alpha3/beta2 (Rattus norvegicus, UniProt P04757+P12390); assay: Inhibition of rat alpha3/beta2 nAChR expressed in Stage V-VI Xenopus laevis Oocytes assessed as inhibition of acetylcholine-induced current in presence of acetylcholine by electrophysiological recording; format: cell-based, Oocyte
Neuronal acetylcholine receptor; alpha3/beta2, sequence (P04757 whole entry): as the sequence (P04757 whole entry) above
Neuronal acetylcholine receptor; alpha3/beta2, sequence (P12390 whole entry): as the sequence (P12390 whole entry) above

[24] = organism: Rattus norvegicus; assay: Inhibition of rat alpha6/alpha3 E195A mutant beta4 nAChR expressed in Stage V-VI Xenopus laevis Oocytes assessed as acetylcholine-induced current response at 1 uM in presence of 100 uM acetylcholine by electrophysiological recording relative to control; format: cell-based
[25] = target: T2, Nicotinic acetylcholine receptor alpha6/alpha3/beta4 (Rattus norvegicus); assay: Inhibition of rat alpha6/alpha3beta4 nAChR expressed in Stage V-VI Xenopus laevis Oocytes assessed as acetylcholine-induced current response at 1 uM in presence of 100 uM acetylcholine by electrophysiological recording relative to control; format: cell-based; set-up: scale not given: the % may be the effect or the level left; settings: Oocyte

For `CC(C)[C@H](NC(=O)[C@@H]1CCCN1C(=O)[C@H](CC(N)=O)NC(=O)[C@H](C)NC(=O)[C@H](CS)NC(=O)[C@H](CS)NC(=O)[C@@H](N)CCCNC(=N)N)C(=O)N[C@@H](CS)C(=O)N[C@@H](CC(N)=O)C(=O)NCC(=O)N[C@@H](CCCCN)C(=O)N[C@@H](Cc1cnc[nH]1)C(=O)N[C@@H](CS)C(N)=O` (H-RCCANPVCNGKHC-NH2), the TIME [1] was 0.0167 h, the inhibition [2] was less than 50% and the IC50 [3] was 0.959 µM. The TIME [4] was 0.0333 h, the IC50 [5] was greater than 10 µM and the inhibition [6] was less than 50%. It also gave a TIME [7] of 0.0667 h, an inhibition [8] of less than 50% and an inhibition [9] of less than 50%. It also gave a Ratio IC50 [10] of 7, a TIME [11] of 0.333 h and an inhibition [12] of less than 50%. It also gave an inhibition [13] of 85.5%, an Activity [14] of 63.8% and an inhibition [15] of less than 50%. It also gave an IC50 [16] greater than 10 µM, an Activity [17] of 22.6% and an inhibition [18] of less than 50%. The IC50 [19] was greater than 10 µM, the inhibition [20] was “inactive” and the inhibition [21] was “inactive”. For the same compound, the IC50 [22] was 0.019 µM, the IC50 [23] was greater than 10 µM and the inhibition [24] was 49.3%. For the same compound, the Activity [25] was 96%.

Reference: ChEMBL document CHEMBL5316324, “Discovery, Characterization, and Engineering of LvIC, an α4/4-Conotoxin That Selectively Blocks Rat α6/α3β4 Nicotinic Acetylcholine Receptors” (J Med Chem, 2023)
